System: 565232-114-T-J1-PDC complex spheroid viability
Experiment: Anticancer human tumor 565232-114-T-J1-PDC patient-derived bladder carcinoma cell line growth inhibition [CLK]
Conditions: for IC50: curve of first compound; for viability, T/C: stronger effect = lower value
How it was run: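 Multi-cell-type spheroids combined patient-derived tumor cells with HUVEC endothelial cells and human mesenchymal stem cells. Paired agents were dosed in half-log steps down from about clinical Cmax, or from 10 microM where Cmax was unknown.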

[1] = second compound 0.0316 µM, first compound 0.0316 µM
[2] = second compound 0.0316 µM, first compound 0.1 µM
[3] = second compound 0.0316 µM, first compound 0.316 µM
[4] = second compound 0.0316 µM, first compound 1 µM
[5] = second compound 0.1 µM, first compound 0.0316 µM
[6] = second compound 0.1 µM, first compound 0.1 µM
[7] = second compound 0.1 µM, first compound 0.316 µM
[8] = second compound 0.1 µM, first compound 1 µM
[9] = second compound 0.316 µM, first compound 0.0316 µM
[10] = second compound 0.316 µM, first compound 0.1 µM
[11] = second compound 0.316 µM, first compound 0.316 µM
[12] = second compound 0.316 µM, first compound 1 µM
[13] = second compound 1 µM, first compound 0.0316 µM
[14] = second compound 1 µM, first compound 0.1 µM
[15] = second compound 1 µM, first compound 0.316 µM
[16] = second compound 1 µM, first compound 1 µM
[17] = second compound 3.16 µM, first compound 0.0316 µM
[18] = second compound 3.16 µM, first compound 0.1 µM
[19] = second compound 3.16 µM, first compound 0.316 µM
[20] = second compound 3.16 µM, first compound 1 µM
[21] = second compound 10 µM, first compound 0.0316 µM
[22] = second compound 10 µM, first compound 0.1 µM
[23] = second compound 10 µM, first compound 0.316 µM
[24] = second compound 10 µM, first compound 1 µM
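Further: spheroids exposed to compounds for 7 days before readout.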
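Wherever viability, T/C is given: 100% = DMSO vehicle wells with luminescence normalized to vehicle control.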

CC(=O)O[C@H]1C(=O)[C@@]2(C)[C@H]([C@H](OC(=O)c3ccccc3)[C@]3(O)C[C@H](OC(=O)[C@H](O)[C@@H](NC(=O)c4ccccc4)c4ccccc4)C(C)=C1C3(C)C)[C@]1(OC(C)=O)CO[C@@H]1C[C@@H]2O + CNC(=O)c1ccc(Nc2nc(OC3CCCC3)c3c(-c4ccc5nc(C)oc5c4)c[nH]c3n2)c(OC)c1
IC50 (second compound 0.0316 µM): < 31.6 nM | IC50 (second compound 0.1 µM): < 31.6 nM | IC50 (second compound 0.316 µM): < 31.6 nM | IC50 (second compound 1 µM): < 31.6 nM | IC50 (second compound 3.16 µM): < 31.6 nM | IC50 (second compound 10 µM): < 31.6 nM | viability, T/C [1]: 24.3% | viability, T/C [2]: 9.42% | viability, T/C [3]: 9.43% | viability, T/C [4]: 10% | viability, T/C (second compound 0.0316 µM, first compound 3.16 µM): 13.3% | viability, T/C (second compound 0.0316 µM, first compound 10 µM): 16.3% | viability, T/C [5]: 37.8% | viability, T/C [6]: 32.8% | viability, T/C [7]: 35.9% | viability, T/C [8]: 29.6% | viability, T/C (second compound 0.1 µM, first compound 3.16 µM): 43.8% | viability, T/C (second compound 0.1 µM, first compound 10 µM): 42.9% | viability, T/C [9]: 31.6% | viability, T/C [10]: 38% | viability, T/C [11]: 38.3% | viability, T/C [12]: 46.9% | viability, T/C (second compound 0.316 µM, first compound 3.16 µM): 51% | viability, T/C (second compound 0.316 µM, first compound 10 µM): 46.5% | viability, T/C [13]: 22.9% | viability, T/C [14]: 30.6% | viability, T/C [15]: 30.7% | viability, T/C [16]: 41.2% | viability, T/C (second compound 1 µM, first compound 3.16 µM): 41.4% | viability, T/C (second compound 1 µM, first compound 10 µM): 36.1% | viability, T/C [17]: 24.4% | viability, T/C [18]: 25.5% | viability, T/C [19]: 25.1% | viability, T/C [20]: 29.9% | viability, T/C (second compound 3.16 µM, first compound 3.16 µM): 26.6% | viability, T/C (second compound 3.16 µM, first compound 10 µM): 29% | viability, T/C [21]: 20.4% | viability, T/C [22]: 22.3% | viability, T/C [23]: 29.6% | viability, T/C [24]: 28.1% | viability, T/C (second compound 10 µM, first compound 3.16 µM): 30.5% | viability, T/C (second compound 10 µM, first compound 10 µM): 27.7%

CCc1c2c(nc3ccc(O)cc13)-c1cc3c(c(=O)n1C2)COC(=O)[C@]3(O)CC + CNC(=O)c1ccc(Nc2nc(OC3CCCC3)c3c(-c4ccc5nc(C)oc5c4)c[nH]c3n2)c(OC)c1
IC50 (second compound 0.0316 µM): 8.14 nM | IC50 (second compound 0.1 µM): < 3.16 nM | IC50 (second compound 0.316 µM): < 3.16 nM | IC50 (second compound 1 µM): < 3.16 nM | IC50 (second compound 3.16 µM): < 3.16 nM | IC50 (second compound 10 µM): < 3.16 nM | viability, T/C (second compound 0.0316 µM, first compound 0.00316 µM): 103% | viability, T/C (second compound 0.0316 µM, first compound 0.01 µM): 37.1% | viability, T/C [1]: 16.6% | viability, T/C [2]: 5.26% | viability, T/C [3]: 3.13% | viability, T/C [4]: 1.53% | viability, T/C (second compound 0.1 µM, first compound 0.00316 µM): 33.4% | viability, T/C (second compound 0.1 µM, first compound 0.01 µM): 17.9% | viability, T/C [5]: 12.2% | viability, T/C [6]: 3.99% | viability, T/C [7]: 2.1% | viability, T/C [8]: 1.61% | viability, T/C (second compound 0.316 µM, first compound 0.00316 µM): 18.9% | viability, T/C (second compound 0.316 µM, first compound 0.01 µM): 15.3% | viability, T/C [9]: 8.99% | viability, T/C [10]: 3.91% | viability, T/C [11]: 1.28% | viability, T/C [12]: 0.35% | viability, T/C (second compound 1 µM, first compound 0.00316 µM): 14.7% | viability, T/C (second compound 1 µM, first compound 0.01 µM): 13.8% | viability, T/C [13]: 4.81% | viability, T/C [14]: 4.56% | viability, T/C [15]: 1.55% | viability, T/C [16]: 0.71% | viability, T/C (second compound 3.16 µM, first compound 0.00316 µM): 15.7% | viability, T/C (second compound 3.16 µM, first compound 0.01 µM): 9.15% | viability, T/C [17]: 5.68% | viability, T/C [18]: 2.4% | viability, T/C [19]: 1% | viability, T/C [20]: 0.27% | viability, T/C (second compound 10 µM, first compound 0.00316 µM): 17.3% | viability, T/C (second compound 10 µM, first compound 0.01 µM): 12.9% | viability, T/C [21]: 6.78% | viability, T/C [22]: 3.12% | viability, T/C [23]: 1.32% | viability, T/C [24]: 2.51%
